Measurements as given in ChEMBL document CHEMBL1201862, “PubChem BioAssay data set” (2004).
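Where inhibition never reached the appropriate level, the endpoint shown equals the highest concentration tested. Otherwise, values were interpolated linearly from a five-concentration, 48-hour dose response in 96-well plates. GI50 marks 50% less growth.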 Active and inactive are the calls of the source. Cut-off read from the data, not from the text of the source: active = GI50 up to about 1.1 µM and inactive = higher.

Columns and labels:
Assay in all cases: growth of human tumour cells (NCI), 48 h
EKVX = test system: EKVX
OVCAR-3 = test system: OVCAR-3
M14 = test system: M14
NCI-H226 = test system: NCI-H226
SNB-75 = test system: SNB-75
SF-268 = test system: SF-268
SK-MEL-2 = test system: SK-MEL-2
UACC-62 = test system: UACC-62
A549 = test system: A549
SF-539 = test system: SF-539
KM12 = test system: KM12
U-251 = test system: U-251
UO-31 = test system: UO-31
OVCAR-4 = test system: OVCAR-4
HOP-18 = test system: HOP-18
HCT-15 = test system: HCT-15
MOLT-4 = test system: MOLT-4
DMS-114 = test system: DMS-114
COLO 205 = test system: COLO 205
HT-29 = test system: HT-29
HCC 2998 = test system: HCC 2998
TK-10 = test system: TK-10
DMS-273 = test system: DMS-273
Malme-3M = test system: Malme-3M
NCI-H460 = test system: NCI-H460
SNB-19 = test system: SNB-19
NCI-H522 = test system: NCI-H522
K562 = test system: K562
786-0 = test system: 786-0
DLD-1 = test system: DLD-1
SK-MEL-5 = test system: SK-MEL-5
OVCAR-8 = test system: OVCAR-8
HCT-116 = test system: HCT-116
SR = test system: SR
SF-295 = test system: SF-295
RXF 393 = test system: RXF 393
SNB-78 = test system: SNB-78
IGROV-1 = test system: IGROV-1
HOP-92 = test system: HOP-92
SW-620 = test system: SW-620
OVCAR-5 = test system: OVCAR-5
UACC-257 = test system: UACC-257
LOX IMVI = test system: LOX IMVI
RPMI-8226 = test system: RPMI-8226
A498 = test system: A498
HL-60 = test system: HL-60
SK-MEL-28 = test system: SK-MEL-28
CCRF-CEM = test system: CCRF-CEM
LXFL 529 = test system: LXFL 529
SK-OV-3 = test system: SK-OV-3
KM-20L2 = test system: KM-20L2
ACHN = test system: ACHN
NCI-H23 = test system: NCI-H23
HOP-62 = test system: HOP-62
SN12C = test system: SN12C
CAKI-1 = test system: CAKI-1
M19-MEL = test system: M19-MEL

CNC(C)Cc1ccccc1O (centres undefined)
GI50 (EKVX): > 100 µM (inactive)
GI50 (OVCAR-3): > 100 µM (inactive)
GI50 (M14): > 100 µM (inactive)
GI50 (NCI-H226): > 100 µM (inactive)
GI50 (SNB-75): > 100 µM (inactive)
GI50 (SF-268): > 100 µM (inactive)
GI50 (SK-MEL-2): > 100 µM (inactive)
GI50 (UACC-62): > 100 µM (inactive)
GI50 (A549): > 100 µM (inactive)
GI50 (SF-539): > 100 µM (inactive)
GI50 (KM12): > 100 µM (inactive)
GI50 (U-251): > 100 µM (inactive)
GI50 (UO-31): > 100 µM (inactive)
GI50 (OVCAR-4): > 100 µM (inactive)
GI50 (HOP-18): > 100 µM (inactive)
GI50 (HCT-15): 8.71 µM
GI50 (MOLT-4): > 100 µM (inactive)
GI50 (DMS-114): > 100 µM (inactive)
GI50 (COLO 205): > 100 µM (inactive)
GI50 (HT-29): > 100 µM (inactive)
GI50 (HCC 2998): > 100 µM (inactive)
GI50 (TK-10): > 100 µM (inactive)
GI50 (DMS-273): > 100 µM (inactive)
GI50 (Malme-3M): > 100 µM (inactive)
GI50 (NCI-H460): > 100 µM (inactive)
GI50 (SNB-19): > 100 µM (inactive)
GI50 (NCI-H522): > 100 µM (inactive)
GI50 (K562): > 100 µM (inactive)
GI50 (786-0): > 100 µM (inactive)
GI50 (DLD-1): > 100 µM (inactive)
GI50 (SK-MEL-5): > 100 µM (inactive)
GI50 (OVCAR-8): > 100 µM (inactive)
GI50 (HCT-116): > 100 µM (inactive)
GI50 (SR): > 100 µM (inactive)
GI50 (SF-295): > 100 µM (inactive)
GI50 (RXF 393): > 100 µM (inactive)
GI50 (SNB-78): > 100 µM (inactive)
GI50 (IGROV-1): > 100 µM (inactive)
GI50 (HOP-92): > 100 µM (inactive)
GI50 (SW-620): > 100 µM (inactive)
GI50 (OVCAR-5): > 100 µM (inactive)
GI50 (UACC-257): > 100 µM (inactive)
GI50 (LOX IMVI): > 100 µM (inactive)
GI50 (RPMI-8226): > 100 µM (inactive)
GI50 (A498): > 100 µM (inactive)
GI50 (HL-60): > 100 µM (inactive)
GI50 (SK-MEL-28): > 100 µM (inactive)
GI50 (CCRF-CEM): > 100 µM (inactive)
GI50 (LXFL 529): > 100 µM (inactive)
GI50 (SK-OV-3): > 100 µM (inactive)
GI50 (KM-20L2): > 100 µM (inactive)
GI50 (ACHN): > 100 µM (inactive)
GI50 (NCI-H23): > 100 µM (inactive)
GI50 (HOP-62): > 100 µM (inactive)
GI50 (SN12C): > 100 µM (inactive)
GI50 (CAKI-1): > 100 µM (inactive)

COc1c(CC(C)O)c2c3c(CC(C)O)c(OC)c(=O)c4c(O)cc5c(c6c(cc(O)c(c1=O)c62)OCO5)c43 (centres undefined) [CERCOSPORIN]
GI50 (OVCAR-3): 1.87 µM (inactive)
GI50 (M14): 1.29 µM (inactive)
GI50 (NCI-H226): 2.29 µM (inactive)
GI50 (SNB-75): 2.38 µM (inactive)
GI50 (SF-268): 1.81 µM (inactive)
GI50 (SK-MEL-2): 1.55 µM (inactive)
GI50 (UACC-62): 1.78 µM (inactive)
GI50 (A549): 1.65 µM (inactive)
GI50 (SF-539): 2.13 µM (inactive)
GI50 (KM12): 1.62 µM (inactive)
GI50 (U-251): 1.72 µM (inactive)
GI50 (UO-31): 2.14 µM (inactive)
GI50 (M19-MEL): 0.664 µM (active)
GI50 (OVCAR-4): 1.38 µM (inactive)
GI50 (HOP-18): 2.58 µM (inactive)
GI50 (HCT-15): 1.56 µM
GI50 (MOLT-4): 1.75 µM (inactive)
GI50 (COLO 205): 0.158 µM (active)
GI50 (HT-29): 0.364 µM (active)
GI50 (TK-10): 2.62 µM (inactive)
GI50 (DMS-273): 0.906 µM (active)
GI50 (Malme-3M): 0.374 µM (active)
GI50 (NCI-H460): 0.45 µM (active)
GI50 (SNB-19): 2.49 µM (inactive)
GI50 (NCI-H522): 1.82 µM (inactive)
GI50 (K562): 2 µM (inactive)
GI50 (786-0): 2.66 µM (inactive)
GI50 (DLD-1): 1.96 µM (inactive)
GI50 (SK-MEL-5): 1.52 µM (inactive)
GI50 (OVCAR-8): 1.74 µM (inactive)
GI50 (HCT-116): 1.39 µM (inactive)
GI50 (SR): 1.37 µM (inactive)
GI50 (SF-295): 1.91 µM (inactive)
GI50 (RXF 393): 1.27 µM (inactive)
GI50 (SNB-78): 2.15 µM (inactive)
GI50 (IGROV-1): 1.69 µM (inactive)
GI50 (HOP-92): 2.3 µM (inactive)
GI50 (SW-620): 2.1 µM (inactive)
GI50 (OVCAR-5): 2.88 µM (inactive)
GI50 (UACC-257): 1.34 µM (inactive)
GI50 (LOX IMVI): 0.711 µM (active)
GI50 (RPMI-8226): 2.1 µM (inactive)
GI50 (HL-60): 0.968 µM (active)
GI50 (SK-MEL-28): 1.86 µM (inactive)
GI50 (CCRF-CEM): 2.72 µM (inactive)
GI50 (LXFL 529): 1.56 µM (inactive)
GI50 (SK-OV-3): 4.14 µM (inactive)
GI50 (KM-20L2): 0.301 µM (active)
GI50 (ACHN): 1.63 µM (inactive)
GI50 (NCI-H23): 1.4 µM (inactive)
GI50 (HOP-62): 1.99 µM (inactive)
GI50 (SN12C): 1.57 µM (inactive)
GI50 (CAKI-1): 6.01 µM (inactive)
